In ChEMBL document CHEMBL1201862, “PubChem BioAssay data set” (2004):
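Results reflect a 48-hour exposure of cells in 96-well plates to compound at five concentrations. Abbreviation: GI50, concentration required for 50% inhibition of growth.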 Calls of active or inactive are those of the source. Rule as the data show it: active = GI50 up to about 1.1 µM and inactive = higher.

Assays:
Assay in all cases: growth of human tumour cells (NCI), 48 h
[1] = system: SK-MEL-5
[2] = system: CCRF-CEM
[3] = system: NCI-H23
[4] = system: SF-268
[5] = system: LXFL 529
[6] = system: K562
[7] = system: SNB-19
[8] = system: UACC-62
[9] = system: SN12C
[10] = system: HT-29
[11] = system: CAKI-1
[12] = system: OVCAR-5
[13] = system: A549
[14] = system: NCI-H460
[15] = system: KM12
[16] = system: DMS-273
[17] = system: RXF 631
[18] = system: EKVX
[19] = system: SR
[20] = system: HOP-62
[21] = system: COLO 205
[22] = system: IGROV-1
[23] = system: SNB-78
[24] = system: U-251
[25] = system: RXF 393
[26] = system: UO-31
[27] = system: 786-0
[28] = system: LOX IMVI
[29] = system: HL-60
[30] = system: SW-620
[31] = system: KM-20L2
[32] = system: TK-10
[33] = system: MOLT-4
[34] = system: SF-539
[35] = system: HOP-92
[36] = system: HOP-18
[37] = system: HCT-15
[38] = system: SK-MEL-2
[39] = system: DMS-114
[40] = system: OVCAR-3
[41] = system: Malme-3M
[42] = system: SF-295
[43] = system: HCT-116
[44] = system: DLD-1
[45] = system: UACC-257
[46] = system: OVCAR-8
[47] = system: NCI-H226
[48] = system: RPMI-8226
[49] = system: M19-MEL
[50] = system: A498
[51] = system: SK-OV-3
[52] = system: M14
[53] = system: XF498
[54] = system: SNB-75
[55] = system: NCI-H522
[56] = system: OVCAR-4

Q: Which results are given for CC(C)=CCCC(C)[C@H]1CC(O)C2(C)C3=CCC4C(C)(C)[C@@H](O)CC[C@]4(C)C3=CC[C@]12C (stereo partly specified)?
A: GI50 [1]: 14.3 µM (inactive); GI50 [2]: 5.25 µM (inactive); GI50 [3]: 3.72 µM (inactive); GI50 [4]: 6.01 µM (inactive); GI50 [5]: 1.95 µM (inactive); GI50 [6]: 1.59 µM (inactive); GI50 [7]: 12.1 µM (inactive); GI50 [8]: 4.23 µM (inactive); GI50 [9]: 3.14 µM (inactive); GI50 [10]: 2.72 µM (inactive); GI50 [11]: 8.36 µM (inactive); GI50 [12]: 25 µM (inactive); GI50 [13]: 2.66 µM (inactive); GI50 [14]: 2.24 µM (inactive); GI50 [15]: 4.36 µM (inactive); GI50 [16]: 1.57 µM (inactive); GI50 [17]: 4.34 µM (inactive); GI50 [18]: 26 µM (inactive); GI50 [19]: 11.6 µM (inactive); GI50 [20]: 5.83 µM (inactive); GI50 [21]: 4.93 µM (inactive); GI50 [22]: 9.29 µM (inactive); GI50 [23]: 7.13 µM (inactive); GI50 [24]: 2.28 µM (inactive); GI50 [25]: 2.92 µM (inactive); GI50 [26]: 14.3 µM (inactive); GI50 [27]: 1.55 µM (inactive); GI50 [28]: 0.0902 µM (active); GI50 [29]: 3.69 µM (inactive); GI50 [30]: 3.89 µM (inactive); GI50 [31]: 6.58 µM (inactive); GI50 [32]: 16.7 µM (inactive); GI50 [33]: 15.2 µM (inactive); GI50 [34]: 2.09 µM (inactive); GI50 [35]: 3.27 µM (inactive); GI50 [36]: 13.7 µM (inactive); GI50 [37]: 5.01 µM; GI50 [38]: 23.3 µM (inactive); GI50 [39]: 10 µM (inactive); GI50 [40]: 3.2 µM (inactive); GI50 [41]: 13.5 µM (inactive); GI50 [42]: 2.24 µM (inactive); GI50 [43]: 2.4 µM (inactive); GI50 [44]: 3.87 µM (inactive); GI50 [45]: 22.5 µM (inactive); GI50 [46]: 1.8 µM (inactive); GI50 [47]: 3.74 µM (inactive); GI50 [48]: 3.27 µM (inactive); GI50 [49]: 4.51 µM (inactive); GI50 [50]: 3.98 µM (inactive); GI50 [51]: 7.82 µM (inactive); GI50 [52]: 3.27 µM (inactive); GI50 [53]: 8.34 µM (inactive); GI50 [54]: 7.48 µM (inactive); GI50 [55]: 0.401 µM (active); GI50 [56]: 2.31 µM (inactive)
